Several values for one entry are separate records, joined by “and”; a condition that tells them apart may be missing. Equal values may be shown once. Entries after “also recorded” stand apart in the source; their conditions may differ. Read-outs that look alike come from different tables or passages of the source. One block for each compound: values may come before it.
Legend:
[1] = test system: HAP1/PRKDC−/− cells; assay: Radiosensitisation of DNA-PK null HAP1/PRKDC−/− cells, regrowth assay; format: cell-based, human; settings: for radiosensitisation / differential growth inhibition of DNA-PK null HAP1 line: 3 Gy, HAP1/PRKDC−/−; for IC50: Homo sapiens, HAP1
[2] = test system: HAP1 cells; assay: Radiosensitisation of HAP1 wild type cells, regrowth assay; format: cell-based, human; settings: for effect in unirradiated HAP1 cells: 0 Gy; for IC50: Homo sapiens, HAP1, read-out: HAP1 wt IC50; for radiosensitisation / differential growth inhibition of HAP1 cells: 3 Gy cobalt-60 gamma irradiation relative to radiation-only
[3] = test system: UT-SCC-54C cells; assay: Radiosensitisation of UT-SCC-54C HNSCC cells, clonogenic survival, oxic and anoxic (Table 18); format: cell-based, human; settings: for Plating efficiency drug/no drug: no radiation
[4] = test system: UT-SCC-54C cells; assay: Radiosensitisation of UT-SCC-54C HNSCC cells, regrowth (sulforhodamine B) assay, oxic (Table 16); format: cell-based, human; settings: for IC50: Homo sapiens, read-out: IC50; for S50: compound in combination with 3 Gy of radiation, 50% inhibition of regrowth fraction, UT-SCC-54C
[5] = target: human DNA-PK (Homo sapiens, UniProt P78527); assay: Inhibition of DNA-PKcs kinase activity, HotSpot assay (Reaction Biology), [γ-33P]-ATP phosphorylation of peptide substrate; format: biochemical
[6] = target: human PI3Kα (p110α/p85α) (Homo sapiens, UniProt P42336); assay: Inhibition of PI3Kα kinase activity, ADP-Glo Assay (Reaction Biology); format: biochemical; settings: 10 μM ATP; mean of two replicates; Table 12; read-out: Inhibition of kinase activity (as IC50) PICK
[7] = target: human mTOR (Homo sapiens, UniProt P42345); assay: Inhibition of mTOR kinase activity, HotSpot assay, phosphorylation of 4EPB1
[8] = target: ATM (Homo sapiens, UniProt Q13315); assay: ATM Human PIKK Kinase Enzymatic ELISA/EIA Assay, KinaseProfiler (Eurofins Discovery); format: biochemical; settings: for IC50: KinaseProfiler, Km ATP, Table 15, read-out: Inhibition of PIKK kinase activity ATM; for remaining activity at 1 µM: read-out: ATM, Percent of control at 1 μM
[9] = 10 μM ATP, 10 μg/ml DNA, mean of two replicates, Table 12, read-out: Inhibition of kinase activity (as IC50) DNA-PK (converted)
[10] = Inhibition of kinase activity (as IC50) mTOR (nM), 10 μM ATP, mean of two replicates, Table 12
[11] = HotSpot assay Reaction Biology Corp., Table 15, read-out: Inhibition of PIKK kinase activity DNA-PK

Sequence of human PI3Kα (p110α/p85α) (P42336 whole entry): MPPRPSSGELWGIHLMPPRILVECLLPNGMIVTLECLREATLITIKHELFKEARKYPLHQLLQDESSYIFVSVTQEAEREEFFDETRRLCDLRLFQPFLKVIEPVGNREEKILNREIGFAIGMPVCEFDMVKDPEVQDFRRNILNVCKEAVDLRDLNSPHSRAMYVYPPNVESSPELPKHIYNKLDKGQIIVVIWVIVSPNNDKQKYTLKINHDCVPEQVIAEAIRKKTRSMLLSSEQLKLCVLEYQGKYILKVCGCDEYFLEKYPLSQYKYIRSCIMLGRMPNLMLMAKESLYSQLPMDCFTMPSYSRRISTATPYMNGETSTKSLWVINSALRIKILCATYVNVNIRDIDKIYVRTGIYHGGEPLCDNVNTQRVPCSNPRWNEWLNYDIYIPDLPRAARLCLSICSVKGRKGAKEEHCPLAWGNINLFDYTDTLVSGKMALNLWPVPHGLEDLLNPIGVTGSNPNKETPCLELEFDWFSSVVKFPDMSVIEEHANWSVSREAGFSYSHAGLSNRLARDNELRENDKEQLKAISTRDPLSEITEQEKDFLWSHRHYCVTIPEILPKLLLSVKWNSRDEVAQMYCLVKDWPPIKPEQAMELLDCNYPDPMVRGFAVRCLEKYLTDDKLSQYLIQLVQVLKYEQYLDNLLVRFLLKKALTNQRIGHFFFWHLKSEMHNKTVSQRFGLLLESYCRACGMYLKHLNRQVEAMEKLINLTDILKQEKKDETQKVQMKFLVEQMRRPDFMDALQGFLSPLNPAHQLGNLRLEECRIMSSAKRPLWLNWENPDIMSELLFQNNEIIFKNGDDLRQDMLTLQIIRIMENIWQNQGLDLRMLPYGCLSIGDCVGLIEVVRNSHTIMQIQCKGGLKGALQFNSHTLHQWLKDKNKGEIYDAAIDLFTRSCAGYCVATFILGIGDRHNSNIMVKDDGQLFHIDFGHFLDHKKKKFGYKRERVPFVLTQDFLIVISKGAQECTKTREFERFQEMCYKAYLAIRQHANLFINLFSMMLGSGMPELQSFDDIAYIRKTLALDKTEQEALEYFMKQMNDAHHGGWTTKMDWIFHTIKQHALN
Sequence of human PI3Kα (p110α/p85α) (P27986 whole entry partner): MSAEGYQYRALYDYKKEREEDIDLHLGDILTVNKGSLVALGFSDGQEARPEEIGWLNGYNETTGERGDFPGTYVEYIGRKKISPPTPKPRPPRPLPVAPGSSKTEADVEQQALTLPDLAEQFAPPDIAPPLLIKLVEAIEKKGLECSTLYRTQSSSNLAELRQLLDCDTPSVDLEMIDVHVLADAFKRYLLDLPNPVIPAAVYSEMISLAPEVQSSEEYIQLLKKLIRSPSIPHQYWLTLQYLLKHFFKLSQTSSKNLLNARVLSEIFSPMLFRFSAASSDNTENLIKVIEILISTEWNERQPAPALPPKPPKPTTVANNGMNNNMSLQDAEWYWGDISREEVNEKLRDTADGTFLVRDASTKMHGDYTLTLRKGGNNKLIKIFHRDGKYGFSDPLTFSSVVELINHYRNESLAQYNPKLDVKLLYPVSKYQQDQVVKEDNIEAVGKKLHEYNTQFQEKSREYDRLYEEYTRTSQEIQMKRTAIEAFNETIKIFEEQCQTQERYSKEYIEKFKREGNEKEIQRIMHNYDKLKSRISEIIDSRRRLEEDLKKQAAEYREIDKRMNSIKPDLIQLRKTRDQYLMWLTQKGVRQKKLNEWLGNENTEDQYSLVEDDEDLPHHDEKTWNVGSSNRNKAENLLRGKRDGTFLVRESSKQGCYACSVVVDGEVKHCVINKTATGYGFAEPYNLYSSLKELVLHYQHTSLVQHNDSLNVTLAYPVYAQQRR
Sequence of ATM (Q13315 whole entry): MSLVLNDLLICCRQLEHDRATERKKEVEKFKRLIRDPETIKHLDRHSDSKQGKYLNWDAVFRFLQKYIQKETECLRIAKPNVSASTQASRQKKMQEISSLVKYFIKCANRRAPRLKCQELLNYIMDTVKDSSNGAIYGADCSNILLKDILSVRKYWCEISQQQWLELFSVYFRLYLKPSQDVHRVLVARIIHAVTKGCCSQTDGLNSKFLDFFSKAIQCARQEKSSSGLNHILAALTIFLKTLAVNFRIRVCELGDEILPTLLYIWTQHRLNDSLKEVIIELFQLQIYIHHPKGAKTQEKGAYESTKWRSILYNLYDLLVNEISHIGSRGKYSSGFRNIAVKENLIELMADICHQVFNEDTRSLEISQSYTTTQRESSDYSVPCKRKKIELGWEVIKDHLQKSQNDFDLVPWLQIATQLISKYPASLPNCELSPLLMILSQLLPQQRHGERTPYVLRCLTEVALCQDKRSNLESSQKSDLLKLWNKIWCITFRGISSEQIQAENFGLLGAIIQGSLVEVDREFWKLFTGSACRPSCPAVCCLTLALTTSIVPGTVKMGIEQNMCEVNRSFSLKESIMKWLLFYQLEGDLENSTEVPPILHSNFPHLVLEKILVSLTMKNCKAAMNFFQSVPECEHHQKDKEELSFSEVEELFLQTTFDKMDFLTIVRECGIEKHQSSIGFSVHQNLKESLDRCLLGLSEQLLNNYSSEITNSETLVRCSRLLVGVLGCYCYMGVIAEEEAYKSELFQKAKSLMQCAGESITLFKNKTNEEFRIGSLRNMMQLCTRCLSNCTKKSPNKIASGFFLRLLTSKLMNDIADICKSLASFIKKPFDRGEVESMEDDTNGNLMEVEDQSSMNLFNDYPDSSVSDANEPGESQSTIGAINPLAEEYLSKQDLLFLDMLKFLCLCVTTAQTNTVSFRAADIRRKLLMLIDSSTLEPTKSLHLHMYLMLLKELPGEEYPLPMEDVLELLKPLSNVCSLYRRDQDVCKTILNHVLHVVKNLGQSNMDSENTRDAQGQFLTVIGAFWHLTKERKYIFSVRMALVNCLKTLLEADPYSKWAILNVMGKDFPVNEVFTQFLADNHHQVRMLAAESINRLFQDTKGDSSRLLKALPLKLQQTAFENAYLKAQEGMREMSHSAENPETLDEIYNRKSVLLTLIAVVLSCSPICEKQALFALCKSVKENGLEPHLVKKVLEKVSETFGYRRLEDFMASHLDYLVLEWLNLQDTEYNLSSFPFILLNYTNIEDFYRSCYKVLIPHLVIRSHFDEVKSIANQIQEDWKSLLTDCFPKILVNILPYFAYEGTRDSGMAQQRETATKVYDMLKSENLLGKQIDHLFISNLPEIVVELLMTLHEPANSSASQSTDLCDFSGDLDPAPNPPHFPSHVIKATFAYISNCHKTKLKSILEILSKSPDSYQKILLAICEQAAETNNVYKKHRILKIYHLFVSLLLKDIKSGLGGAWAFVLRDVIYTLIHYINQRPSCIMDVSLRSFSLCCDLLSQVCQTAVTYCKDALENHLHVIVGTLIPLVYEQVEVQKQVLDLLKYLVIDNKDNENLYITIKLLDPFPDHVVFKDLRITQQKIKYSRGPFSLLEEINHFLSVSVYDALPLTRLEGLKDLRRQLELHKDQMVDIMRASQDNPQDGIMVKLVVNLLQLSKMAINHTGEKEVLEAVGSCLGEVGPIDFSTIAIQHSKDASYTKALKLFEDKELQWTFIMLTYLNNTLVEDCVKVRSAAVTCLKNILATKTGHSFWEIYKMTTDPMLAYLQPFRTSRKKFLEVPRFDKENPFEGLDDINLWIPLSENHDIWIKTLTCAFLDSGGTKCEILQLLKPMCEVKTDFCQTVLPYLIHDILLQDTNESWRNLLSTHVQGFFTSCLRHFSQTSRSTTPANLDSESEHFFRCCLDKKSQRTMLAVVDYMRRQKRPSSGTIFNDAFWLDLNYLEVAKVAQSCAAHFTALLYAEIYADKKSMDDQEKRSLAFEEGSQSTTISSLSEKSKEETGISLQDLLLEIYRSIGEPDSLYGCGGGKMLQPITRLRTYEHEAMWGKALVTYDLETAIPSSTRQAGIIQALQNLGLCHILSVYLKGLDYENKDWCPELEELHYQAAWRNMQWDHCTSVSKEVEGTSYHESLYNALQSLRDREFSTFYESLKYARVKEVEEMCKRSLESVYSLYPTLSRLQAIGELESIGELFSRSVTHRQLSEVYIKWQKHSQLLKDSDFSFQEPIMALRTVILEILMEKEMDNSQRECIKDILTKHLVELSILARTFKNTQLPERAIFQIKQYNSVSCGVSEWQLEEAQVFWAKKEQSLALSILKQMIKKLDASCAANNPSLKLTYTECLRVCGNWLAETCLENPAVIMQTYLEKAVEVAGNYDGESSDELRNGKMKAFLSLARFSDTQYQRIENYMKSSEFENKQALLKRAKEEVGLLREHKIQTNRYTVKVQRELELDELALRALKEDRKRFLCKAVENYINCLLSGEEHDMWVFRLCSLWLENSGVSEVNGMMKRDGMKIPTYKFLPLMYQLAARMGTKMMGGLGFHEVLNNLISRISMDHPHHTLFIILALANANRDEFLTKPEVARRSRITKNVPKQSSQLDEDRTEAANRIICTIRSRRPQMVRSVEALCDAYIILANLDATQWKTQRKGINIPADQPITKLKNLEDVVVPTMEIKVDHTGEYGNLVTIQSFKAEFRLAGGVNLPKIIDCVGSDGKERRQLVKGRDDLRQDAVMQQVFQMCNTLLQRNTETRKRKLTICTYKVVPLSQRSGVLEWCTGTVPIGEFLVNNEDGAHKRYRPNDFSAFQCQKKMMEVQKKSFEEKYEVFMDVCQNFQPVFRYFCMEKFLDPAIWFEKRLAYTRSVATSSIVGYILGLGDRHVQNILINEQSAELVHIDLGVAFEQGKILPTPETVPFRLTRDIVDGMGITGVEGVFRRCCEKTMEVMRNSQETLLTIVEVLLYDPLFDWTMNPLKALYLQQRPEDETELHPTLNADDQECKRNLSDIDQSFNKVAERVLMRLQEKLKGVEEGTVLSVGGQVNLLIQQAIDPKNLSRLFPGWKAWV

SMILES: Cc1cc(O)ccc1Nc1cc2c(cn1)n(C)c(=O)n2C1CCOCC1 [Compound 135, 6-((4-Hydroxy-2-methylphenyl)amino)-3-methyl-1-(tetrahydro-2H-pyran-4-yl)-1,3-dihydro-2H-imidazo[4,5-c]pyridin-2-one]
radiosensitisation / differential growth inhibition of DNA-PK null HAP1 line [1]: did not radiosensitise; also recorded: did not demonstrate any differential growth inhibition
IC50 [1]: > 10 µM
effect in unirradiated HAP1 cells [2]: little effect
IC50 [2]: > 10 µM
D1 (radiation dose for 1% surviving fraction) ([3]; 0% O2, compound conc 1 μM): 11.5 Gy
D10 (radiation dose for 10% surviving fraction) ([3]; 0% O2, compound conc 1 μM): 6.37 Gy
SER1 (sensitiser enhancement ratio at 1% surviving fraction) ([3]; 0% O2, compound conc 1 μM): 2.07
SER10 (sensitiser enhancement ratio at 10% surviving fraction) ([3]; 0% O2, compound conc 1 μM): 2.47
Plating efficiency drug/no drug ([3]; 0% O2, compound conc 1 μM): 1.12
D1 (radiation dose for 1% surviving fraction) ([3]; 20% O2, compound conc 0.33 μM): 1.37 Gy
D10 (radiation dose for 10% surviving fraction) ([3]; 20% O2, compound conc 0.33 μM): 4.85 Gy
SER1 (sensitiser enhancement ratio at 1% surviving fraction) ([3]; 20% O2, compound conc 0.33 μM): 1.20
SER10 (sensitiser enhancement ratio at 10% surviving fraction) ([3]; 20% O2, compound conc 0.33 μM): 8.09
Plating efficiency drug/no drug ([3]; 20% O2, compound conc 0.33 μM): 0.77
D10 (radiation dose for 10% surviving fraction) ([3]; 20% O2, compound conc 1 μM): 3.15 Gy and 2.88 Gy
SER1 (sensitiser enhancement ratio at 1% surviving fraction) ([3]; 20% O2, compound conc 1 μM): 1.5 and 1.59
Plating efficiency drug/no drug ([3]; 20% O2, compound conc 1 μM): 0.59 and 0.89
D1 (radiation dose for 1% surviving fraction) ([3]; 20% O2, compound conc 3 μM): 2.91 Gy
D10 (radiation dose for 10% surviving fraction) ([3]; 20% O2, compound conc 3 μM): 2.28 Gy
SER1 (sensitiser enhancement ratio at 1% surviving fraction) ([3]; 20% O2, compound conc 3 μM): 1.92
SER10 (sensitiser enhancement ratio at 10% surviving fraction) ([3]; 20% O2, compound conc 3 μM): 5.06
Plating efficiency drug/no drug ([3]; 20% O2, compound conc 3 μM): 0.63
radiosensitisation, clonogenic survival endpoint ([3]; UT-SCC-54C, FIG. 8 and Table 18): concentration-dependent increases in radiosensitisation
IC50 [4]: > 10 µM
S50 ([4]; oxic): 0.93 µM
IC50 [5, 9]: 0.0057 µM and 0.0171 µM
IC50 [6]: 3.22 µM and 5.24 µM

IC50 [7, 10]: 12600 nM
IC50 [5, 9]: 0.00906 µM
IC50 [6]: 4.23 µM
SMILES: COc1cc(C)c(Nc2cc3c(cn2)n(C)c(=O)n3C2CCOCC2)cn1 [Compound 126, 6-((6-Methoxy-4-methylpyridin-3-yl)amino)-3-methyl-1-(tetrahydro-2H-pyran-4-yl)-1,3-dihydro-2H-imidazo[4,5-c]pyridin-2-one]
radiosensitisation / differential growth inhibition of DNA-PK null HAP1 line [1]: did not radiosensitise
IC50 [1]: > 10 µM
effect in unirradiated HAP1 cells [2]: little effect
radiosensitisation / differential growth inhibition of HAP1 cells [2]: concentration-dependent radiosensitisation
IC50 [2]: > 10 µM
IC50 [4]: > 10 µM
S50 ([4]; oxic): 0.32 µM

IC50 [8]: 1.1 µM
SMILES: Cn1c(=O)n(C2CCCC2)c2cc(Nc3cnc4ccccc4c3)ncc21 [Compound 64, 1-Cyclopentyl-3-methyl-6-(quinolin-3-ylamino)-1,3-dihydro-2H-imidazo[4,5-c]pyridin-2-one]

remaining activity at 1 µM [8]: 92%
SMILES: Cn1c(=O)n(C2CCCC2)c2cc(Nc3cccc4cnccc34)ncc21 [Compound 66, 1-Cyclopentyl-6-(isoquinolin-5-ylamino)-3-methyl-1,3-dihydro-2H-imidazo[4,5-c]pyridin-2-one]

remaining activity at 1 µM [8]: 88%
SMILES: Cc1cc(Nc2cc3c(cn2)n(C)c(=O)n3C2CCCC2)c2ccccc2n1 [Compound 67, 1-Cyclopentyl-3-methyl-6-((2-methylquinolin-4-yl)amino)-1,3-dihydro-2H-imidazo[4,5-c]pyridin-2-one]

remaining activity at 1 µM [8]: 86%
SMILES: Cc1cc(NCCN(C)C)ccc1Nc1cc2c(cn1)n(C)c(=O)n2C1CCCC1 [Compound 56, 1-Cyclopentyl-6-((4-((2-(dimethylamino)ethyl)amino)-2-methylphenyl)amino)-3-methyl-1,3-dihydro-2H-imidazo[4,5-c]pyridin-2-one]

SMILES: COc1ccc(Nc2cc3c(cn2)n(C)c(=O)n3C2CCOCC2)cc1 [Compound 215, 6-((4-Methoxyphenyl)amino)-3-methyl-1-(tetrahydro-2H-pyran-4-yl)-1,3-dihydro-2H-imidazo[4,5-c]pyridin-2-one]
IC50 ([7]; Inhibition of PIKK kinase activity mTOR/FRAP (nM), HotSpot assay Reaction Biology Corp., Table 15): 12300 nM
IC50 [7, 10]: 12300 nM
IC50 [4]: > 10 µM
S50 ([4]; oxic): 7.5 µM
IC50 [5, 9]: 0.051 µM
IC50 [5, 11]: 0.051 µM
IC50 [6]: 12.5 µM
remaining activity at 1 µM [8]: 90%

IC50 [8]: 0.94 µM
SMILES: Cn1c(=O)n(C2CCCC2)c2cc(Nc3ccc4nccnc4c3)ncc21 [Compound 68, 1-Cyclopentyl-3-methyl-6-(quinoxalin-6-ylamino)-1,3-dihydro-2H-imidazo[4,5-c]pyridin-2-one]

remaining activity at 1 µM [8]: 93%
SMILES: Cn1c(=O)n(C2CCCC2)c2cc(Nc3cccc4ncccc34)ncc21 [Compound 65, 1-Cyclopentyl-3-methyl-6-(quinolin-5-ylamino)-1,3-dihydro-2H-imidazo[4,5-c]pyridin-2-one]

IC50 [8]: 0.719 µM
SMILES: Cn1c(=O)n(C2CCCC2)c2cc(Nc3ccc4ncccc4c3)ncc21 [Compound 63, 1-Cyclopentyl-3-methyl-6-(quinolin-6-ylamino)-1,3-dihydro-2H-imidazo[4,5-c]pyridin-2-one]

SMILES: Cn1c(=O)n(-c2ccc(C(C)(C)C#N)cc2)c2cc(Nc3ccc4ncccc4c3)ncc21 [Compound 213, 2-Methyl-2-(4-(3-methyl-2-oxo-6-(quinolin-6-ylamino)-2,3-dihydro-1H-imidazo[4,5-c]pyridin-1-yl)phenyl)propanenitrile]
IC50 [4]: > 10 µM
S50 ([4]; oxic): 2.22 µM
IC50 [5, 9]: 0.00123 µM
IC50 [5, 11]: 0.00123 µM
IC50 [6]: 1.73 µM
remaining activity at 1 µM [8]: 68%

SMILES: COc1ccc(N(C(=O)OCc2ncc([N+](=O)[O-])n2C)c2cc3c(cn2)n(C)c(=O)n3C2CCOCC2)c(C)c1 [Compound 251, (1-Methyl-5-nitro-1H-imidazol-2-yl)methyl (4-methoxy-2-methylphenyl)(3-methyl-2-oxo-1-(tetrahydro-2H-pyran-4-yl)-2,3-dihydro-1H-imidazo[4,5-c]pyridin-6-yl)carbamate]
IC50 [7, 10]: > 100000 nM
D1 (radiation dose for 1% surviving fraction) ([3]; 0% O2, compound conc 1 μM): 19.50 Gy
D10 (radiation dose for 10% surviving fraction) ([3]; 0% O2, compound conc 1 μM): 13.17 Gy
SER1 (sensitiser enhancement ratio at 1% surviving fraction) ([3]; 0% O2, compound conc 1 μM): 1.10
SER10 (sensitiser enhancement ratio at 10% surviving fraction) ([3]; 0% O2, compound conc 1 μM): 1.06
Plating efficiency drug/no drug ([3]; 0% O2, compound conc 1 μM): 1.03
sensitisation of UT-SCC-54C cells selectively under anoxia ([3]; oxic vs anoxic, clonogenic survival, FIGS. 9 and 10): provide sensitisation of UT-SCC-54C cells selectively under anoxia
IC50 [4]: > 10 µM
S50 ([4]; oxic): >10 µM
radiosensitisation / differential growth inhibition of UT-SCC-54C cells ([4]; oxic, 0 or 3 Gy, regrowth assay): did not display any differential growth inhibition
IC50 [5, 9]: 1.26 µM
IC50 [6]: > 100 µM

IC50 [7, 10]: 60200 nM
IC50 [5, 9]: 0.0126 µM
IC50 [6]: 5.57 µM
SMILES: Cc1nc2cc(C)c(Nc3cc4c(cn3)n(C)c(=O)n4C3CCOCC3)cc2o1 [Compound 132, 6-((2,5-Dimethylbenzo[d]oxazol-6-yl)amino)-3-methyl-1-(tetrahydro-2H-pyran-4-yl)-1,3-dihydro-2H-imidazo[4,5-c]pyridin-2-one]
radiosensitisation / differential growth inhibition of DNA-PK null HAP1 line [1]: did not radiosensitise
effect in unirradiated HAP1 cells [2]: little effect
radiosensitisation / differential growth inhibition of HAP1 cells [2]: concentration-dependent radiosensitisation
IC50 [4]: > 10 µM
S50 ([4]; oxic): 0.49 µM

IC50 [8]: 0.275 µM
SMILES: Cn1c(=O)n(C2CCCC2)c2cc(Nc3ccccn3)ncc21 [Compound 73, 1-Cyclopentyl-3-methyl-6-(pyridin-2-ylamino)-1,3-dihydro-2H-imidazo[4,5-c]pyridin-2-one]

IC50 [7, 10]: 10800 nM
IC50 [5, 9]: 0.00305 µM
IC50 [6]: 2.53 µM
SMILES: Cc1cc2c(cc1Nc1cc3c(cn1)n(C)c(=O)n3C1CCOCC1)OCO2 [Compound 130, 3-Methyl-6-((6-methylbenzo[d][1,3]dioxol-5-yl)amino)-1-(tetrahydro-2H-pyran-4-yl)-1,3-dihydro-2H-imidazo[4,5-c]pyridin-2-one]
IC50 [4]: > 10 µM
S50 ([4]; oxic): 0.50 µM

IC50 [5, 9]: 0.0049 µM
IC50 [6]: 5.46 µM
SMILES: Cc1cc(Cl)ccc1Nc1cc2c(cn1)n(C)c(=O)n2C1CCOC1 (centres unmarked) [Compound 116, 6-((4-Chloro-2-methylphenyl)amino)-3-methyl-1-(tetrahydrofuran-3-yl)-1,3-dihydro-2H-imidazo[4,5-c]pyridin-2-one]
IC50 [1]: > 10 µM
IC50 [2]: > 10 µM
IC50 [4]: > 10 µM
S50 ([4]; oxic): 0.06 µM

IC50 [7, 10]: 7900 nM
IC50 [5, 9]: 0.011 µM
IC50 [6]: 0.49 µM
SMILES: Cc1cc(Cl)ccc1Nc1cc2c(cn1)n(C)c(=O)n2CCC1CCOCC1 [Compound 147, 6-((4-Chloro-2-methylphenyl)amino)-3-methyl-1-(2-(tetrahydro-2H-pyran-4-yl)ethyl)-1,3-dihydro-2H-imidazo[4,5-c]pyridin-2-one]
IC50 [4]: > 10 µM
S50 ([4]; oxic): 0.97 µM

Reference: patent US20230365559A1, “NOVEL AMINOPYRIDINES AND THEIR USE IN TREATING CANCER” (priority 2020, published 2023)
